Laboratory results taken from patent US20070043108A1, “Use of equol for ameliorating or preventing neuropsychiatric and neurodegenerative diseases or disorders” (priority 2002, published 2007).
“And” between values parts separate entries of the source, which are not always exact repeats. Equal values may be shown once.

Legend:
GDX males = test: Examples 5 and 6: gonadectomized (GDX) male rats treated with DHTP, equol or both; histology; type: in vivo, rat
Procedure: One week following arrival, animals are gonadectomized (GDX) under isoflurane anesthesia and allowed to recover for 7 days. Following recovery, animals are assigned to the following groups 1) DMSO, 2) DHTP (2 mg/1 kg), 3) racemic equol (0.25 mg/kg), or 4) both DHTP and racemic equol. Injections are given subcutaneously daily for 4 days. Animals are killed via decapitation and trunk blood and tissues are collected for analysis.
Tissues, including prostate, testes and epididymis, are removed from the animal, dissected free of fat and connective tissues, weighed, fixed by immersion in 4% paraformaldehyde, and then sectioned at 15 μm on a cryostat. Tissue sections are mounted on charged slides (Superfrost Plus, Fisher Scientific, Pittsburgh, Pa.) prewarmed to 23° C., and stained with hematoxylin and eosin (H&E), dehydrated in ascending alcohol and cleared with xylene.

ERα = molecular target: T1, ERα (Rattus norvegicus, UniProt P06211); test: Competition binding of equol enantiomers with [3H]E2 for in vitro translated ERα
T1 construct: Full length rat ERα expression vector (pcDNA-ERα; RH Price UCSF); made in house; host or cells: TnT-coupled rabbit reticulocyte lysate in vitro translation (Promega)
T1 sequence (P06211 1-600): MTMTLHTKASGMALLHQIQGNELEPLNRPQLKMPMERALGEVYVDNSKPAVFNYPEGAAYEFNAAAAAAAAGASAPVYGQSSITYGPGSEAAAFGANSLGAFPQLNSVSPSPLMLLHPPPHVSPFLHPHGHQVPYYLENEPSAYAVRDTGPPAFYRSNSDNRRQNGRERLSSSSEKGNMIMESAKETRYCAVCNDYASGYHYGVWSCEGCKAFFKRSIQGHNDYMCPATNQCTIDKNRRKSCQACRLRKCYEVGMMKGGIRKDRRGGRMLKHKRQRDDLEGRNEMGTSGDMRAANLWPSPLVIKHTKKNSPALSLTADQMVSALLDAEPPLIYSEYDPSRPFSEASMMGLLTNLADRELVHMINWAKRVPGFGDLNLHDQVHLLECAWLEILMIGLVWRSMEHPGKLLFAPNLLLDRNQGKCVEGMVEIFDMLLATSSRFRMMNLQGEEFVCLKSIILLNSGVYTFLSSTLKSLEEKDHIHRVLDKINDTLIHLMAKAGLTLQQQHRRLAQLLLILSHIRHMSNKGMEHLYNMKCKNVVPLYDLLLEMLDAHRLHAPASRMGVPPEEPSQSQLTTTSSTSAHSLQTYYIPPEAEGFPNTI
Procedure: (§1) In vitro binding studies were performed to examine the relative affinities of S— and R-enantiomeric equol with the estrogen receptors ERα and ERβ.
(§2) Synthesis of Hormone Receptor Proteins: Full length rat ERα expression vector (pcDNA-ERα; RH Price UCSF) and ERβ expression vector (pcDNA-ERβ; T A Brown, Pfizer, Groton, […].) were used to synthesize hormone receptors in vitro using the TnT-coupled reticulocyte lysate system (Promega, Madison, Wis.) with T7-RNA polymerase, during a 90 min reaction at 30° C. Translation reaction mixtures were stored at −80° C. until further use.
(§3) Saturation isotherms: In order to calculate and establish the binding affinity of the S-equol and R-equol enantiomers for ERα and ERβ, 100 μL aliquots of reticulocyte lysate supernatant were incubated at optimal time and temperature; 90 min at room temperature (ERβ) and 18 hrs at 4° C. (ERα), with increasing (0.01-100 nm) concentrations of [3H] […] These times were determined empirically and represent optimal binding of receptor with estrogen. Nonspecific binding was assessed using a 300-fold excess of the ER agonist diethylstilbestrol, in parallel tubes. Following incubation, bound and unbound [3H]E2 were separated by passing the incubation reaction through a 1 mL lipophilic Sephadex LH-20 (Sigma-Aldrich Co., Saint Louis, Mo.) column Columns were constructed by packing a disposable pipette tip (1 mL; Labcraft, Curtin Matheson Scientific, Inc, Houston, Tex.) with TEGMD (10 mm Tris-Cl, 1.5 mm EDTA, 10% glycerol, 25 mm molybdate, and 1 mm dithiothreitol, pH 7.4)-saturated Sephadex according to previously published protocols (Wanda et al., 1986; O'Keefe and Handa, 1990). For chromatography, the columns were re-equilibrated with TEGMD (100 μL), and the incubation reactions were added individually to each column and allowed to incubate on the column for an additional 30 min. Following this incubation, 600 μL of TEGMD were added to each column, flow-through was collected, 4 mL scintillation fluid was added, and samples were counted (5 min each) in an 2900 TR Packard scintillation counter (Packard Bioscience, Meriden, Conn.).
(§4) Competition binding studies were used to assess the estrogenic properties of equol's S-equol and R-equol enantiomers. Based on the ability of S and R to compete with [3H]

ERβ = molecular target: T2, ERβ (Rattus norvegicus, UniProt Q62986); test: Competition binding of equol enantiomers with [3H]E2 for in vitro translated ERβ
T2 construct: Full length rat ERα expression vector (pcDNA-ERα; RH Price UCSF) and ERβ expression vector (pcDNA-ERβ; T A Brown, Pfizer; made in house; host or cells: TnT-coupled rabbit reticulocyte lysate in vitro translation (Promega)
Procedure: as §1, §2, §3, §4

[1] = system: Adult male Sprague-Dawley rats; test: Example 3: prostate, epididymis and body weight gain in male rats treated with racemic, R- or S-equol; type: in vivo, rat; settings: 0.25 mg/kg/day sc, seven days
Procedure: Adult male Sprague-Dawley rats are randomly assigned to […] groups and receive daily injections of either DMSO, a racemic mixture of equol at 0.250 mg/kg/day), R-equol at 0.250 mg/kg/day, or S-equol at 0.250 mg/kg/day. The total volume of each injection is 0.3 cc, administered sc at the nape of the rat's neck. After seven consecutive days of treatment, the rats are killed and the body weight gain during the injection period is determined.

AR = molecular target: T3, AR (Rattus norvegicus, UniProt P15207); test: Binding to the androgen receptor (prostate supernatant, [3H]DHT)
T3 construct: incubated with prostate supernatant and then passed through the 30 cm column; from tissue; host or cells: prostate supernatant
T3 sequence (P15207 1-902): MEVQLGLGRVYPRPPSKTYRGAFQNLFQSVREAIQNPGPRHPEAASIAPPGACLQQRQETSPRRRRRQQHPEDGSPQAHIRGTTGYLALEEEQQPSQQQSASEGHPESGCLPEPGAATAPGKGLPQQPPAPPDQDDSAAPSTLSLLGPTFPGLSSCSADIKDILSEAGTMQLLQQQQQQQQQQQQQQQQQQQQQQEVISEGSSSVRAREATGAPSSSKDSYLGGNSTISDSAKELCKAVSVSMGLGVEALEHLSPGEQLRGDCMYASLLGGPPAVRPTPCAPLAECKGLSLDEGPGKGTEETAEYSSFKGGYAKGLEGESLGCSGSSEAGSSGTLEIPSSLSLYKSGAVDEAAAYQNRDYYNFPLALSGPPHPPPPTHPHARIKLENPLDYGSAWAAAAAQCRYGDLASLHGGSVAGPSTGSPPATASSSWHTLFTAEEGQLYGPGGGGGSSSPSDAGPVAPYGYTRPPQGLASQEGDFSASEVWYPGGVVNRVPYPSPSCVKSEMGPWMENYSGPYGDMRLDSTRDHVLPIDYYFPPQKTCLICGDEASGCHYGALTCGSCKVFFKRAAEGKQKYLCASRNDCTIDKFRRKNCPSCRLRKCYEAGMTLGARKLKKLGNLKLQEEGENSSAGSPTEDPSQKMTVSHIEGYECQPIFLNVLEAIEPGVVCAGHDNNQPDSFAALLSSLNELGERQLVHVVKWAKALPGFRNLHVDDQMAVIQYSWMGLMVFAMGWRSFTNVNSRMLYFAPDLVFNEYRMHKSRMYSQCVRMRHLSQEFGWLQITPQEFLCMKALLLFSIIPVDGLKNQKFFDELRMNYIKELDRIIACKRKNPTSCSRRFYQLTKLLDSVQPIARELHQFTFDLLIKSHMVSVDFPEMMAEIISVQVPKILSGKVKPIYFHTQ

[2] = system: Adult male Sprague-Dawley rats; test: Example 15: elevated plus maze of equol injected male rats; type: in vivo, rat; settings: 0.250 mg/Kg/day sc, seven days, n = 8
Source text: The elevated plus maze is a behavioral test used to quantify anxiety-related behavior and identify anxiolytic drugs (Pellow S. et al., J Neurosci Methods, 14:149-147 (1985); Current Protocols In Neuroscience (1997) 8.3.1-8.3.15, John Wiley & Sons. NY, N.Y.). The test relies on the inherent conflict between exploration of a novel environment and avoidance of its aversive features. Normally, animals spend little time and make few entries into the open arms of the maze compared to the closed arms of the maze (Imhof J. T. et al., Behav Brain Res, 56:177-180 (1993). However, animals treated with anxiolytics, such as benzodiazepines (valium), spend more time in the open arms and the number of entries into the open arms reflects a decrease in anxiety-related behaviors (Pellow S. et al., J Neurosci Methods, 14:149-147 (1985); Current Protocols In Neuroscience (1997) 8.3.1-8.3.15, John Wiley & Sons. NY, N.Y.; Chopin P. et al., Psychopharm, 110:409-414 (1993).
Adult male Sprague-Dawley rats receive daily injections of either DMSO, racemic equol (0.250 mg/Kg/day), R-equol (0.250 mg/Kg/day), or S-equol (0.250 mg/Kg/day) in a total volume of 0.3 cc DMSO by subcutaneous injection. At the end of seven consecutive days of treatment the animals are tested in the elevated plus maze in order to quantify anxiety-related behaviors.

[3] = system: Long-Evans rats, male offspring; test: Example 19: elevated plus maze of adult male offspring after pre- and early postnatal treatment; type: in vivo, rat
Procedure: Pregnant Long-Evans rats were treated via daily subcutaneous injections from gestational day 14 through 20 and during lactation from postnatal day 2 through 25 with: 1) control-DMSO vehicle or, 2) genistein@ 3 mg/day or 3) equol@ 3 mg/day according to the treatment groups. All animals were fed a phytoestrogen-low diet throughout these studies (10 ppm isoflavones). There were no significant differences in maternal body weights just before birth among the treatment groups. […] The maternal and male offspring genistein and equol levels @ 25 days post birth) paralleled that of the treatments administered.
At approximately 90 days of age the male offspring were tested by treatments (control, genistein and equol) in the EPM that was video-taped for 3 minutes and later recorded for the number of entries into—and the percentage of total time spent—on the open arms, as previously described. […] Equol time intervals were 2-fold greater than genistein values and genistein levels were approximately 9-fold greater than controls.

[4] = competition with [3H]E2, in vitro translated ER
[5] = 3 mg/day sc to dams, offspring tested at about 90 days

T2 sequence (Q62986 whole entry): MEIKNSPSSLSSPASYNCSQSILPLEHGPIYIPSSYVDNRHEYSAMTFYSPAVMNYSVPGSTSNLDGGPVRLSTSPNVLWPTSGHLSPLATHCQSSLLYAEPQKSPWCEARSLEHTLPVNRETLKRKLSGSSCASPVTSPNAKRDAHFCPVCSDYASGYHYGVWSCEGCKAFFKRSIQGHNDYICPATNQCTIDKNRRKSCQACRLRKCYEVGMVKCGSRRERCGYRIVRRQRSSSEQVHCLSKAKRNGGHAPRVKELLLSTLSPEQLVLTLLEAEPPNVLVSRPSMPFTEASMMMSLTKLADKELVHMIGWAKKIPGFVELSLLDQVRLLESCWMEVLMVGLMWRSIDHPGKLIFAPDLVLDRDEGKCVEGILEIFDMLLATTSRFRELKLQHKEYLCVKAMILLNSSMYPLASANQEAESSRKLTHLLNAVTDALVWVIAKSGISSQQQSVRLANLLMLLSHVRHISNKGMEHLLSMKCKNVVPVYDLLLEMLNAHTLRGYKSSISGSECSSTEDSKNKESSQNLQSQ

## CCC(=O)O[C@H]1CC[C@H]2[C@@H]3CC[C@H]4CC(=O)CC[C@]4(C)[C@H]3CC[C@]12C [DHTP, DHT propionate, reference compound]
GDX males; GDX males, given alone, vs DMSO
  LH: significantly decreased
GDX males; GDX males, given alone, vs vehicle-treated GDX
  prostate weight: significant increase
GDX males; GDX, DHTP 2 mg/kg sc daily for 4 days
  plasma 5α-DHT: significant elevations

## Oc1ccc([C@H]2COc3cc(O)ccc3C2)cc1 [S-equol]
ERα
  relative binding affinity for ERα compared with 17β-estradiol, fold less: 49.2 fold and 49 fold
ERα; [4]
  Kd: 6410 ± 1010 pM
ERβ
  affinity for ERβ, fold less: approximately 5 fold
  binding to ERβ relative to that of 17β-estradiol: approximately 20%
ERβ; as stated in the background section
  Kd: 700 pM
ERβ; [4]
  Kd: 730 ± 200 pM
[1]
  Body Wt Gain (g): 56.1 (±3.1) g
  Epididymis (g): 0.86 (±0.05) g
  Prostate (g): 0.35 (±0.03) g
AR
  binding to the androgen receptor: does not bind the androgen receptor
[2]
  Center Area: 27.5 ± 4.1 s
  Open Arm Time: 33.6 ± 7.0 s

## O=c1c(-c2ccc(O)cc2)coc2cc(O)cc(O)c12 [genistein]
[3]; 3 mg/day sc to dams from gestational day 14
  body weights at birth vs controls: slightly (but not significantly) higher
[3]; [5]
  entries into the open arms vs controls: not significantly different
  time in the open arms vs controls: significantly greater
[3]; offspring tested at about 90 days
  open arm time intervals, fold greater than controls: approximately 9 fold
